Consider one compound from PMC11218446, “Antibacterial efficacy and membrane mechanism of action of the Serratia-derived non-ionic lipopeptide, serrawettin W2-FL10” (Microbiology Spectrum, 2024).

Values joined by “and” are separate entries in the source; they are usually repeats but may differ in a detail not shown here. Equal values may be shown once.

Assay [1] deals with S. aureus Xen 30 (MRSA Xen 30). The assay is described as follows: Broth microdilution assay (OD 600 nm). Format: cell-based, Staphylococcus aureus. As to the method: (§1) Serrawettin W2-FL10 (95% pure) was tested for antibacterial activity using a broth microdilution susceptibility assay ([6]), with melittin included as an antibiotic control. The serrawettin W2-FL10 was prepared in 70% MeCN to 1.00 mg/mL, from which aliquots were prepared using 70% MeCN to a concentration of 50 µg/mL or 500 µg/mL, while aliquots of melittin were prepared using analytical quality H2O to 128 µg/mL. Fifty microliters of the respective W2-FL10 aliquots or melittin were dispensed into a clear 96-well plate and a microdilution (in 70% MeCN for W2-FL10 or analytical quality H2O for melittin) was performed within the plate. The plate was air-dried to remove the solvent and placed in a desiccator with chloroform for 20 min for sterilization.
(§2) All the cultures (inoculated into 5 mL MHB, or 5 mL TSB for Listeria and Enterococcus strains) were incubated at 37°C to reach an optical density (OD) of 0.4 at 600 nm (∼10^7 CFU/mL). A 1:20 dilution of the test strain (final concentration of ∼10^5 CFU/mL) was prepared and 100 µL was dispensed into each well (final concentration of W2-FL10 at 1.5–125 µg/mL and melittin at 2–32 µg/mL). Sterile broth and the OD-adjusted inoculum were included as positive controls, while sterile broth (no inoculum) was included as a negative control. The 96-well plate was incubated for 18 h at 37°C. All the tests were performed in triplicate, with independent duplicates. Following incubation, the absorbance was measured using a microtiter plate reader at 600 nm. The 50% growth inhibition concentration (IC50) was determined using GraphPad Prism version 5 for Windows [GraphPad Software, San Diego, USA (www.graphpad.com)]. A sigmodal curve with variable slope was fitted to each set of dose-repose data according to Rautenbach et al. ([17]) using equation (1):
(§3) (1) Y=bottom+(top−bottom)/1+10^logIC50×Activity slope
(§4) The “top” and “bottom” are the maximum and minimum inhibition responses, respectively, for a particular set of dose-response data, while the activity slope is related to the Hill slope of a sigmoidal binding curve ([16]). […] The MIC value was determined for each set of dose-response data as the lowest concentration, resulting in ≥90% inhibition of the target cell growth. In addition to the MIC and IC50 inhibition parameters, an inhibition concentration factor (ICF), was calculated as outlined in Rautenbach et al. ([17]). The ICF is indicative of the concentration increase from the highest concentration where no activity is observed to the MIC of a compound.

The subject of assay [2] is S. aureus ATCC 25923. Briefly: Broth microdilution assay (OD 600 nm). It is filed as cell-based, Staphylococcus aureus. As to the method:
as §1, §2, §3, §4

Assay [3] relates to S. aureus RN4220. The assay is described as follows: Broth microdilution assay (OD 600 nm). It is filed as cell-based, Staphylococcus aureus. As to the method: as §1, §2, §3, §4
Assay [4] deals with three S. aureus strains. Briefly: Time-kill kinetics, summary. It is filed as cell-based, Staphylococcus aureus. The settings on record: at MIC. As to the method: Time-kill assays were performed for W2-FL10 against S. aureus ATCC 25923, S. aureus RN4220, and MRSA Xen 30 to determine the bacteriostatic (suppresses growth) or bactericidal (>3 log reduction in CFUs) activity of the compound, allowing for the determination of cell survival percentage per minute ([19]).
To determine the kill rate of the lipopeptide, exponentially growing S. aureus strains were prepared as described in the “Antibacterial activity: broth microdilution assay” section (OD600 = 0.4, ~10^7 CFU/mL; 1:20 dilution was conducted to obtain ~10^5 CFU/mL) ([24], [55]). Thereafter, 200 µL of the bacterial suspension (in MHB) was dispensed into a clear 96-well plate containing 12.5 or 25 µg/mL of W2-FL10, and plates were incubated at 37°C. Aliquots of 20 µL were collected at different time intervals (0, 1, 2, 4, 8, and 24 h), diluted in 180 µL PBS in a clear 96-well plate (from 10^−2 to 10^−8), and 100 µL of the respective dilution was spread onto LB agar plates. Undiluted samples of 20 µL were spot-plated onto LB agar to confirm the absence of cells at 8 and/or 24 h. The LB agar plates were then incubated overnight at 37°C and the CFU/mL was determined. A positive control of bacterial cells without peptide and a negative control with only LB were included. All the tests were performed in triplicate, with independent duplicates. […]

The subject of assay [5] is E. faecium S1. The assay is described as follows: Broth microdilution assay (OD 600 nm). It is filed as cell-based, Enterococcus faecium. As to the method:
as §1, §2, §3, §4

Assay [6] has as its system B. subtilis ATCC 6051. Briefly: Broth microdilution assay (OD 600 nm). It is filed as cell-based, Bacillus subtilis. As to the method:
as §1
as §2, with “A sigmodal curve with variable slope was fitted to each set of dose-repose data according to Rautenbach et al. ([17]) using equation (1):” left out
The “top” and “bottom” are the maximum and minimum inhibition responses, respectively, for a particular set of dose-response data, while the activity slope is related to the Hill slope of a sigmoidal binding curve ([16]). […] In addition to the MIC and IC50 inhibition parameters, an inhibition concentration factor (ICF), was calculated as outlined in Rautenbach et al. ([17]). […]

The mark [7] stands for this setting: 50% growth inhibition, sigmoidal curve fit, n = 3.
Setting [8] is: inhibition concentration factor.
The mark [9] stands for this setting: ≥90% growth inhibition, OD 600 nm, MHB, 18 h 37°C.

For the compound `CCCCCCCC1CC(=O)N[C@H](CC(C)C)C(=O)N[C@@H](CO)C(=O)N[C@@H]([C@@H](C)O)C(=O)N[C@H](Cc2ccccc2)C(=O)N[C@@H](CC(C)C)C(=O)O1` (some centres unmarked) [W2-FL10, serrawettin W2-FL10], the “IC50 ± SD” value in assay [1] (setting [7]) was 5.7 ± 0.6 (3) µg/mL; in assay [2] (setting [7]), 5.5 ± 0.3 (3) µg/mL; in assay [3] (setting [7]), 5.7 ± 0.6 (3) µg/mL; in assay [5] (setting [7]) it was 5.4 ± 0.1 (3) µg/mL; in assay [6] (setting [7]), 13.4 ± 0.8 (3) µg/mL. Further, the Selectivity index is on record as 5.1 in assay [1] (LC50 (CHO)/IC50); 5.3 in assay [2] (LC50 (CHO)/IC50); 5.1 in assay [3] (LC50 (CHO)/IC50); 5.4 in assay [5] (LC50 (CHO)/IC50); 2.2 in assay [6] (LC50 (CHO)/IC50). Moreover, the “ICF (MIC/IC50)^2” value amounted to 4.8 in assay [1] (setting [8]), 5.2 in assay [2] (setting [8]), 4.9 in assay [3] (setting [8]) and 5.9 in assay [5] (setting [8]). In addition, the minimal inhibitory concentration (MIC) is 12.5 μg/mL and 12.5 (17.1) μg/mL in assay [1] (setting [9]); 12.5 μg/mL and 12.5 (17.1) μg/mL in assay [2] (setting [9]); 12.5 μg/mL and 12.5 (17.1) μg/mL in assay [3] (setting [9]); 12.5 μg/mL and 12.5 (17.1) μg/mL in assay [5] (≥90% growth inhibition, OD 600 nm, TSB, 18 h 37°C); 31.3 μg/mL and 31.3 (42.7) μg/mL in assay [6] (setting [9]). The “time within which >90% bactericidal action occurred” value in assay [4] fell in the range of 4 to 8 h.
